# Measured values reported in patent publication US12673936B2, “Isoindolinone compounds, and uses thereof” (HANGZHOU GLUBIO PHARMACEUTICAL CO., LTD., priority 2021, dated 2026).
# Legend:
# HiBiT tagged CK1α = HiBiT tagged CK1α (Homo sapiens, UniProt P48729+Q96SW2); experiment: CK1α degradation assay (HiBiT assay); format: cell-based; details: 20 hours; for Dmax: HT-1080, HT-1080 cells; for DC50: concentration at 50% CK1α degradation
# Protocol: (§1) CK1α and GSPT1 Degradation Assay (HiBiT Assay) The following is an example of an assay that can be used to determine the dose-dependent CK1α and GSPT1 degradation activities of test compounds in a human cell line such as HT-1080 ([…]). HT-1080 cells stably overexpressing wild-type CRBN, GSPT1A(1-138)/G575N mutant and HiBiT tagged CK1α or GSPT1 were seeded into 384-well plates (Cat #3764, Corning) pre-spotted with DMSO or test compounds. Increasing concentrations of test compounds (ranging from 3.162×10^-4 μM to 10 μM at a 3.16-fold increment) or DMSO were dispensed into an empty 384-well plate using an Echo Acoustic Liquid Handler (Beckman Coulter). About 10,000 cells in complete DMEM cell culture media were seeded per well. […] Luminescence was then measured with an EnVision plate reader (PerkinElmer) or a PHERAstar plate reader (BMG Labtech). All CK1α or GSPT1 degradation curves were processed using Collaborative Drug Discovery Vault softwares (Burlingame, CA., www.collaborativedrug.com). CK1α or GSPT1 levels in compound-treated wells were normalized to that of DMSO control and expressed as Percent of Control (PoC, y). […]
# HiBiT tagged GSPT1 = HiBiT tagged GSPT1 (Homo sapiens, UniProt P15170+Q96SW2); experiment: GSPT1 degradation assay (HiBiT assay); format: cell-based; details: 20 hours, maximum GSPT1 degradation; for Dmax: HT-1080, HT-1080 cells; for HiBiT GSPT1: Dmax: HT-1080 cells
# Protocol: as §1
# Chain of HiBiT tagged CK1α (P48729 whole entry): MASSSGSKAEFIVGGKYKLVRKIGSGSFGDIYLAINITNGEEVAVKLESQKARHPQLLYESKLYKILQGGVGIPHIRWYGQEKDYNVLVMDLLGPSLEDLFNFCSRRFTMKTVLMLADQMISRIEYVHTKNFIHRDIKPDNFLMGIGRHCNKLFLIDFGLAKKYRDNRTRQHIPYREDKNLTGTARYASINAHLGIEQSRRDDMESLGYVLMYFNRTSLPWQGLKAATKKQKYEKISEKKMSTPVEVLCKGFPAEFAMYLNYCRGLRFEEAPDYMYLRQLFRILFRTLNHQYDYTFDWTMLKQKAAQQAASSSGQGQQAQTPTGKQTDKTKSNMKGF
# Chain of HiBiT tagged CK1α (Q96SW2 whole entry): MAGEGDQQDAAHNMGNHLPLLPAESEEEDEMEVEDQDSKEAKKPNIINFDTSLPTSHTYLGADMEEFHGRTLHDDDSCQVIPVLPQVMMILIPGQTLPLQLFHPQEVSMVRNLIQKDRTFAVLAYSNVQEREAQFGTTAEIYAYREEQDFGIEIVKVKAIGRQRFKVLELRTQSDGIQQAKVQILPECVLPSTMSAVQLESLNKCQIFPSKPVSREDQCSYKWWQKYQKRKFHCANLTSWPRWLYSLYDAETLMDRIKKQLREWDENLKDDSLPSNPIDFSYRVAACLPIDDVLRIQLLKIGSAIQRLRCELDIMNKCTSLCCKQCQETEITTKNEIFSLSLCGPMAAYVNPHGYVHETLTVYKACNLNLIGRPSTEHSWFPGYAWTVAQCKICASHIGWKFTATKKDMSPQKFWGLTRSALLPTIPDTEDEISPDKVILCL
# Chain of HiBiT tagged CK1α (Q16531 whole entry partner): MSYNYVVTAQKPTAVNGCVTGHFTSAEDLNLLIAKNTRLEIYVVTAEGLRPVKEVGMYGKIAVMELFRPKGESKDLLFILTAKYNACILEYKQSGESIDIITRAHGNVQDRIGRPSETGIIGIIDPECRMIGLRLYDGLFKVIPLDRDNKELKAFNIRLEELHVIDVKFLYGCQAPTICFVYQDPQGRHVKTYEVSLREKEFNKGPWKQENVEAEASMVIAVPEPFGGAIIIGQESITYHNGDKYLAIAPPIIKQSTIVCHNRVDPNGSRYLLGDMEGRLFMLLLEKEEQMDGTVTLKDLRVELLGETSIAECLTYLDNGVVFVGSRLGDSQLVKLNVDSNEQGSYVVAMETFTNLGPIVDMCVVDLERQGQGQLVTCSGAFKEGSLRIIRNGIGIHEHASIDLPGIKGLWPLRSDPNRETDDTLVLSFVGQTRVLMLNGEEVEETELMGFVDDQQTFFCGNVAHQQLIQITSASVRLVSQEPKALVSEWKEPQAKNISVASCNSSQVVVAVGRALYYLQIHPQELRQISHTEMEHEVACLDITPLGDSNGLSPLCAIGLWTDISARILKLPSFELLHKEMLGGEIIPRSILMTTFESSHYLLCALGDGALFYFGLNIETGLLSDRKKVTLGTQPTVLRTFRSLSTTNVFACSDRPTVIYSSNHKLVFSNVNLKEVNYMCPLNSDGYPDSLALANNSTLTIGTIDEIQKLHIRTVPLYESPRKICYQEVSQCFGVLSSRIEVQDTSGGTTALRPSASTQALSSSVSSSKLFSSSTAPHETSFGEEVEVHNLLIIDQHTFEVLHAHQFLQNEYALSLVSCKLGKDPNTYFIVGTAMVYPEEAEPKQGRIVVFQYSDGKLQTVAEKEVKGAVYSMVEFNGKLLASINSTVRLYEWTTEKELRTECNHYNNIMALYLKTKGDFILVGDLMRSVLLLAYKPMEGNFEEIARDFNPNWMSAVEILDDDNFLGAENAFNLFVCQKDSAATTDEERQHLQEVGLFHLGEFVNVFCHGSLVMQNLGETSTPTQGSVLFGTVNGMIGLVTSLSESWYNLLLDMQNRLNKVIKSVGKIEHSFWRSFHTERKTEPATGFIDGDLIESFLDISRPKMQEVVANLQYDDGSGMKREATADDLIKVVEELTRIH
# Chain of HiBiT tagged GSPT1 (P15170 whole entry): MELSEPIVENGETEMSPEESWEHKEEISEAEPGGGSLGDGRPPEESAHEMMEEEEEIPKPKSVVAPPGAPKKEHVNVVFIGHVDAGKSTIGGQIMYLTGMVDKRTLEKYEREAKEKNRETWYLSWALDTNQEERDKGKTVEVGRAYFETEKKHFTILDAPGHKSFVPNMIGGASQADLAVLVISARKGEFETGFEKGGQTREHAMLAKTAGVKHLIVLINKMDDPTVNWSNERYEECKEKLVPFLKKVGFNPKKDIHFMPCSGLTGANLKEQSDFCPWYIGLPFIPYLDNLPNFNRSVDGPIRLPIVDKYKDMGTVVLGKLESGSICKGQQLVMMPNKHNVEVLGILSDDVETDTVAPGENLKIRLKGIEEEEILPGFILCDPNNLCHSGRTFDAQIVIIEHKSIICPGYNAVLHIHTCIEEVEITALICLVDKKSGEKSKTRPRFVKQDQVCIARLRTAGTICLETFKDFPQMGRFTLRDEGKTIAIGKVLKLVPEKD
# Chain of HiBiT tagged GSPT1 (Q96SW2 whole entry): as the sequence (Q96SW2 whole entry) above
# Chain of HiBiT tagged GSPT1 (Q16531 whole entry partner): as the sequence (Q16531 whole entry partner) above
Compound,Dmax (HiBiT tagged CK1α; maximum CK1α degradation) [%],Dmax (HiBiT tagged GSPT1) [%],DC50 (HiBiT tagged CK1α; HT-1080 cells) [nM],"HiBiT CK1α: Dmax (HiBiT tagged CK1α; HT-1080 cells, maximum CK1α degradation) [%]",HiBiT GSPT1: Dmax (HiBiT tagged GSPT1) [%]
"O=C1CCC(N2Cc3cc(C(=O)N[C@@H](c4ccc(F)cc4)C4COC4)ccc3C2=O)C(=O)N1 (stereo in doubt) [Compound 59, 2-(2,6-dioxopiperidin-3-yl)-N-((*R)-(4-fluorophenyl)(oxetan-3-yl)methyl)-1-oxoisoindoline-5-carboxamide]",32.2,7.93,,,
"O=C1CCC(N2Cc3cc(C(=O)N[C@H](c4ccc(F)cc4)C4(O)CC4)ccc3C2=O)C(=O)N1 (stereo partly drawn) [Compound 65, 2-(2,6-dioxopiperidin-3-yl)-N—((R)-(4-fluorophenyl)(1-hydroxycyclopropyl)methyl)-1-oxoisoindoline-5-carboxamide]",59.6,23.1,721,,
"O=C1CCC(N2Cc3cc(C(=O)N[C@H](c4ccccc4F)C4CC4)ccc3C2=O)C(=O)N1 (stereo in doubt) [Compound 11, N-((*S)-cyclopropyl(2-fluorophenyl)methyl)-2-(2,6-dioxopiperidin-3-yl)-1-oxoisoindoline-5-carboxamide]",64.7,23.4,308,,
"O=C1CCC(N2Cc3cc(C(=O)N[C@@H](c4ccc(F)cc4Cl)C4CC4)ccc3C2=O)C(=O)N1 (stereo in doubt) [Compound 74, N-((*R)-(2-chloro-4-fluorophenyl)(cyclopropyl)methyl)-2-(2,6-dioxopiperidin-3-yl)-1-oxoisoindoline-5-carboxamide]",59.2,62.3,233,,
"O=C1CC[C@@H](N2Cc3cc(C(=O)N[C@H](c4ccc(Cl)cc4F)C4CCC4)ccc3C2=O)C(=O)N1 (racemic) [Compound 54, N-((*S)-(4-chloro-2-fluorophenyl)(cyclobutyl)methyl)-2-((*R)-2,6-dioxopiperidin-3-yl)-1-oxoisoindoline-5-carboxamide]",56.5,,1110,,47.9

# Further molecules by falling DC50 (HiBiT tagged CK1α; HT-1080 cells), results first:
Dmax (HiBiT tagged CK1α; maximum CK1α degradation) [%],Dmax (HiBiT tagged GSPT1) [%],DC50 (HiBiT tagged CK1α; HT-1080 cells) [nM],"HiBiT CK1α: Dmax (HiBiT tagged CK1α; HT-1080 cells, maximum CK1α degradation) [%]",HiBiT GSPT1: Dmax (HiBiT tagged GSPT1) [%],Compound
66.2,37,221,,,"O=C1CCC(N2Cc3cc(C(=O)NC(c4ccc(F)cc4F)C4CC4)ccc3C2=O)C(=O)N1 (centres unmarked) [Compound 1, N-(cyclopropyl(2,4-difluorophenyl)methyl)-2-(2,6-dioxopiperidin-3-yl)-1-oxoisoindoline-5-carboxamide]"
68.6,28.6,112,,,"O=C1CC[C@@H](N2Cc3cc(C(=O)NC(c4ccc(F)c(F)c4)C4CCC4)ccc3C2=O)C(=O)N1 (single isomer, unassigned) [Compound 49, N-((*S)-cyclobutyl(3,4-difluorophenyl)methyl)-2-((R)-2,6-dioxopiperidin-3-yl)-1-oxoisoindoline-5-carboxamide]"
71.4,30.4,73.5,,,"O=C1CCC(N2Cc3cc(C(=O)N[C@H](c4ccc(F)cc4Cl)C4CCC4)ccc3C2=O)C(=O)N1 (stereo in doubt) [Compound 73, N-((*S)-(2-chloro-4-fluorophenyl)(cyclobutyl)methyl)-2-(2,6-dioxopiperidin-3-yl)-1-oxoisoindoline-5-carboxamide]"
,,62.7,74,26,"O=C1CCC(N2Cc3cc(C(=O)N[C@H](c4c(F)cccc4Cl)C4CCC4)ccc3C2=O)C(=O)N1 (stereo in doubt) [Compound 69, N-((*S)-(2-chloro-6-fluorophenyl)(cyclobutyl)methyl)-2-(2,6-dioxopiperidin-3-yl)-1-oxoisoindoline-5-carboxamide]"
73.8,42.4,57.8,,,"O=C1CCC(N2Cc3cc(C(=O)NC(c4c(F)cccc4Cl)C4CC4)ccc3C2=O)C(=O)N1 (centres unmarked) [Compound 45, N-((2-chloro-6-fluorophenyl)(cyclopropyl)methyl)-2-(2,6-dioxopiperidin-3-yl)-1-oxoisoindoline-5-carboxamide]"
